# Experimental data published in patent EP4563579A1, “MACROCYCLIC EGFR INHIBITOR, AND PREPARATION METHOD THEREFOR AND PHARMACEUTICAL USE THEREOF” (Abbisko Therapeutics Co., Ltd., priority 2022, dated 2024).
# Experiments:
# [1] = Pharmacokinetic experiment in mice; assay type: in vivo; settings: male, mouse; ICR mice, single oral administration (PO), 10 mg/kg, plasma
# A431 WT = experiment: Cell proliferation assay (CellTiter-Glo), A431 WT; assay type: cell-based; settings: Homo sapiens, A-431; A431 WT cells, 72 hour incubation, CTG readout
# Procedure, shortened: (§1)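 Cells seeded overnight, then exposed 72 h at 37 °C, 5% CO2 to nine 3.16-fold dilutions (top final 10 µM, 0.1% DMSO), triplicate wells. Viability read by CellTiter-Glo luminescence, with a T0 plate read at dosing; IC50 (nM) by non-linear sigmoidal regression.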
# [2] = system: Ba/F3 EGFR-L858R-T790M-C797S (LTC); experiment: Cell proliferation assay (CellTiter-Glo), Ba/F3 LTC; assay type: cell-based; settings: Mus musculus, BaF3; Ba/F3 EGFR-L858R-T790M-C797S cells, 72 hour incubation, CTG readout
# Procedure, shortened: as §1
# [3] = system: Ba/F3 EGFR-DEL19-T790M-C797S (DTC); experiment: Cell proliferation assay (CellTiter-Glo), Ba/F3 DTC; assay type: cell-based; settings: Ba/F3 EGFR-DEL19-T790M-C797S cells, 72 hour incubation, CTG readout; read-out: IC50 BaF3 DTC
# Procedure, shortened: as §1
# [4] = system: Ba/F3 EGFR-DEL19-C797S (DC); experiment: Cell proliferation assay (CellTiter-Glo), Ba/F3 DC; assay type: cell-based; settings: Mus musculus, BaF3; Ba/F3 EGFR-DEL19-C797S cells, 72 hour incubation, CTG readout
# Procedure, shortened: as §1
# [5] = system: Ba/F3 EGFR-L858R-C797S (LC); experiment: Cell proliferation assay (CellTiter-Glo), Ba/F3 LC; assay type: cell-based; settings: Mus musculus, BaF3; Ba/F3 EGFR-L858R-C797S cells, 72 hour incubation, CTG readout
# Procedure, shortened: as §1
AUC(0-t) [1] [ng·h/mL],Cmax [1] [ng/mL],half-life [1] [h],IC50 (A431 WT) [nM],IC50 [2] [nM],IC50 [3] [nM],IC50 [4] [nM],IC50 [5] [nM],Compound
6080,1560,3,446,0.8,1.5,2.3,2.1,"CC(C)S(=O)(=O)C[C@H]1CCN(c2nn3c4cc(ncc24)Nc2ccnc(n2)-c2cnn(C)c2OCC2(CCCC2)C3)C1 [Example 39, (S)-3'-(3-((isopropylsulfonyl)methyl)pyrrolidin-1-yl)-1' -methylspiro(cyclopentane-1,6'-8-oxa-3-aza-4(6,1)-pyrazolo[4,3-c]pyridina-2(2,4)-pyrimidina-1(4,5)-pyrazolacyclooctaphane)]"
10100,2070,3.1,554,6.4,3.2,6.1,15.8,"CCS(=O)(=O)C[C@H]1CCN(c2nn3c4cc(ncc24)Nc2ccnc(n2)-c2cnn(C)c2OCC2(CCCCC2)C3)C1 [Example 37, (S)-1'-methyl-3'-(3-((ethylsulfonyl)methyl)pyrrolidin-1-yl)spiro(cyclohexane-1,6'-8-oxa-3-aza-4(6,1)-pyrazolo [4,3-c]pyridina-2(2,4)-pyrimidina-1(4,5)-pyrazolacyclooctaphane)]"
1030,88.2,3.5,323,10.5,7.2,7.9,17.4,"CN1CCC(C#Cc2nn3c4cc(ncc24)Nc2ccnc(n2)-c2cnn(C)c2OCC2(CCCC2)C3)CC1 [Example 1, 1'-methyl-3'-((1-methylpiperidin-4-yl)ethynyl)spiro(cyclopentane-1,6'-8-oxa-3-aza-4(6,1)-pyrazolo[4,3-c]pyridina-2(2,4)-pyrimidina-1(4,5)-pyrazolacyclooctaphane)]"
2390,694,4.7,375,1.4,1.6,0.7,2.7,"Cn1ncc2c1OCC1(CCCC1)Cn1nc(N3CC[C@H](CS(C)(=O)=O)C3)c3cnc(cc31)Nc1ccnc-2n1 [Example 34, (S)-1'methyl-3'-(3-((methylsulfonyl)methyl)pyrrolidin-1-yl)spiro(cyclopentane-1,6 '-8-oxa-3-aza-4(6,1)-pyrazolo[4,3-c]pyridina-2(2,4)-pyrimidina-1(4,5)-pyrazolacyclooctaphane)]"
4540,1400,0.66,622,4,1.8,1.6,9.6,"CCS(=O)(=O)C[C@@H]1CCN(c2nn3c4cc(ncc24)Nc2ccnc(n2)-c2cnn(C)c2OCC2(CCCC2)C3)C1 [Example 29, (R)-3' -(3-((ethylsulfonyl)methyl)pyrrolidin-1-yl)-1'-me thylspiro(cyclopentane-1,6' -8-oxa-3-aza-4(6,1)-pyrazolo[4,3-c]pyridina-2(2,4)-pyrimidina-1(4,5)-pyrazolacyclooctaphane)]"
2690,596,2.8,424,9,10.1,15,17.6,"COC(=O)N[C@@H]1CCN(c2nn3c4cc(ncc24)Nc2ccnc(n2)-c2cnn(C)c2OCC2(CCCC2)C3)C1 [Example 51, Methyl (R)-(1-(1'-methylspiro(cyclopentane-1,6'-8-oxa-3-aza-4 (6,1)-pyrazolo[4,3-c]pyridina-2(2,4)-pyrimidina-1(4,5)-pyrazolacyclooctaphane)-3'-yl)pyrrolidin-3-yl)carbamate]"
7110,1920,2.3,564,3.1,5.2,15.9,12.9,"Cn1ncc2c1OCC1(CCCCC1)Cn1nc(N3CC[C@H](CS(=O)(=O)C4CC4)C3)c3cnc(cc31)Nc1ccnc-2n1 [Example 41, (S)-3'-(3-((cyclopropylsulfonyl)methyl)pyrrolidin-1-yl)-1'-methylspiro(cyclohexane-1,6'-8-oxa-3-aza-4(6,1)-pyrazolo[4,3-c]pyridina-2(2,4) -pyrimidina-1(4,5)-pyrazolacyclooctaphane)]"
